Read-outs that look alike come from different tables or passages of the source.
What was measured:
[1] = tested on: subjects with metastatic or surgically unresectable urothelial cancer
Method: The study comprises a Screening Phase (molecular screening at any time prior to first dose and study screening within 30 days of first dose), a treatment phase, and a post-treatment follow-up phase. The treatment phase comprises the period from first dose until the end-of-treatment visit. The follow-up phase will extend until the subject has died, withdraws consent, is lost to follow-up, or the end of study, whichever comes first. Study treatment is administered on 28-day cycles. Prior to interim analysis 1, there were 2 treatment regimens.
Safety was assessed continuously by the investigator and based on medical review of AE reports and the results of vital sign measurements, physical examinations, clinical laboratory tests, ECOG performance status, and other safety evaluations.

[2] = tested on: metastatic or surgically unresectable urothelial cancer harboring select FGFR genetic alterations
Method: Assessments of tumor responses as reported herein were performed according to Response Evaluation Criteria in Solid Tumors (RECIST) version 1.1.
Included patients were adults with measurable urothelial cancer per Response Evaluation Criteria in Solid Tumors version 1.1.
Patients were required to have at least 1 FGFR2/FGFR3 mutation or fusion per central lab testing of RNA from formalin-fixed, paraffin-embedded tumor samples, using a custom assay.
Patients had progressed during or following at least 1 line of prior systemic chemotherapy or less than 12 months of neoadjuvant or adjuvant chemotherapy.
The primary end point of this ongoing study is Objective Response Rate to the selected regimen (Regimen 3).
Secondary end points include progression-free survival (PFS), duration of response (DoR), Overall Survival, safety, predictive biomarker evaluation, and pharmacokinetics.
Patients were assessed for efficacy using radiographic imaging performed within 30 days of screening, once every 6 weeks for the first 3 months, once every 12 weeks for the next 9 months, then once every 4 to 6 months until disease progression. Tumor responses were assessed by investigators according to RECIST version 1.1 (Eisenhauer E A et al., Eur J Cancer, 2009, 45(2), 228-247).

[3] = Any grade, Regimen 2, 6 mg continuous dose (n = 78)
[4] = Any grade, Regimen 3, 8 mg continuous dose (n = 96)
[5] = Grade ≥ 3, Regimen 1, 10 mg intermittent dose (n = 33)
[6] = Grade ≥ 3, Regimen 2, 6 mg continuous dose (n = 78)
[7] = Grade ≥ 3, Regimen 3, 8 mg continuous dose (n = 96)
[8] = Regimen 1, 10 mg intermittent dose (n = 33)
[9] = Regimen 2, 6 mg continuous dose (n = 78)
[10] = Regimen 3, 8 mg continuous dose (n = 59)

COc1cc(OC)cc(N(CCNC(C)C)c2ccc3ncc(-c4cnn(C)c4)nc3c2)c1 [erdafitinib, N-(3,5-dimethoxyphenyl)-N′-(1-methylethyl)-N-[3-(1-methyl-1H-pyrazol-4-y)quinoxalin-6-yl]ethane-1,2-diamine]
TRAE: Alopecia [1, 3]: 7 (9) n (%) | TRAE: Asthenia [1, 3]: 12 (15) n (%) | TRAE: Decreased appetite [1, 3]: 18 (23) n (%) | TRAE: Diarrhea [1, 3]: 34 (44) n (%) | TRAE: Dry eye [1, 3]: 2 (3) n (%) | TRAE: Dry mouth [1, 3]: 31 (40) n (%) | TRAE: Dry skin [1, 3]: 17 (22) n (%) | TRAE: Dysgeusia [1, 3]: 10 (13) n (%) | TRAE: Fatigue [1, 3]: 14 (18) n (%) | TRAE: Hyperphosphatemia [1, 3]: 48 (62) n (%) | TRAE: Lacrimation increased [1, 3]: 11 (14) n (%) | TRAE: Nail dystrophy [1, 3]: 7 (9) n (%) | TRAE: Onycholysis [1, 3]: 13 (17) n (%) | TRAE: Palmar-plantar erythrodysaesthesia syndrome [1, 3]: 12 (15) n (%) | TRAE: Paronychia [1, 3]: 11 (14) n (%) | TRAE: Stomatitis [1, 3]: 32 (41) n (%) | TRAE: Vision blurred [1, 3]: 5 (6) n (%) | TRAE: Alopecia [1, 4]: 22 (23) n (%) | TRAE: Asthenia [1, 4]: 13 (14) n (%) | TRAE: Decreased appetite [1, 4]: 23 (24) n (%) | TRAE: Diarrhea [1, 4]: 40 (42) n (%) | TRAE: Dry eye [1, 4]: 17 (18) n (%) | TRAE: Dry mouth [1, 4]: 40 (42) n (%) | TRAE: Dry skin [1, 4]: 26 (27) n (%) | TRAE: Dysgeusia [1, 4]: 32 (33) n (%) | TRAE: Fatigue [1, 4]: 19 (20) n (%) | TRAE: Hyperphosphatemia [1, 4]: 66 (69) n (%) | TRAE: Lacrimation increased [1, 4]: 8 (8) n (%) | TRAE: Nail dystrophy [1, 4]: 12 (13) n (%) | TRAE: Onycholysis [1, 4]: 10 (10) n (%) | TRAE: Palmar-plantar erythrodysaesthesia syndrome [1, 4]: 15 (16) n (%) | TRAE: Paronychia [1, 4]: 14 (15) n (%) | TRAE: Stomatitis [1, 4]: 45 (47) n (%) | TRAE: Vision blurred [1, 4]: 15 (16) n (%) | TRAE: Alopecia [1, 5]: 0 n (%) | TRAE: Asthenia [1, 5]: 2 (6) n (%) | TRAE: Decreased appetite [1, 5]: 0 n (%) | TRAE: Diarrhea [1, 5]: 1 (3) n (%) | TRAE: Dry eye [1, 5]: 0 n (%) | TRAE: Dry mouth [1, 5]: 0 n (%) | TRAE: Dry skin [1, 5]: 0 n (%) | TRAE: Dysgeusia [1, 5]: 0 n (%) | TRAE: Fatigue [1, 5]: 0 n (%) | TRAE: Hyperphosphatemia [1, 5]: 0 n (%) | TRAE: Lacrimation increased [1, 5]: 0 n (%) | TRAE: Nail dystrophy [1, 5]: 0 n (%) | TRAE: Onycholysis [1, 5]: 0 n (%) | TRAE: Palmar-plantar erythrodysaesthesia syndrome [1, 5]: 0 n (%) | TRAE: Paronychia [1, 5]: 0 n (%) | TRAE: Stomatitis [1, 5]: 1 (3) n (%) | TRAE: Vision blurred [1, 5]: 0 n (%) | TRAE: Alopecia [1, 6]: 0 n (%) | TRAE: Asthenia [1, 6]: 4 (5) n (%) | TRAE: Decreased appetite [1, 6]: 2 (3) n (%) | TRAE: Diarrhea [1, 6]: 0 n (%) | TRAE: Dry eye [1, 6]: 1 (1) n (%) | TRAE: Dry mouth [1, 6]: 2 (3) n (%) | TRAE: Dry skin [1, 6]: 0 n (%) | TRAE: Dysgeusia [1, 6]: 0 n (%) | TRAE: Fatigue [1, 6]: 1 (1) n (%) | TRAE: Hyperphosphatemia [1, 6]: 0 n (%) | TRAE: Lacrimation increased [1, 6]: 0 n (%) | TRAE: Nail dystrophy [1, 6]: 0 n (%) | TRAE: Onycholysis [1, 6]: 5 (6) n (%) | TRAE: Palmar-plantar erythrodysaesthesia syndrome [1, 6]: 0 n (%) | TRAE: Paronychia [1, 6]: 0 n (%) | TRAE: Stomatitis [1, 6]: 7 (9) n (%) | TRAE: Vision blurred [1, 6]: 1 (1) n (%) | TRAE: Alopecia [1, 7]: 0 n (%) | TRAE: Asthenia [1, 7]: 3 (3) n (%) | TRAE: Decreased appetite [1, 7]: 0 n (%) | TRAE: Diarrhea [1, 7]: 3 (3) n (%) | TRAE: Dry eye [1, 7]: 0 n (%) | TRAE: Dry mouth [1, 7]: 0 n (%) | TRAE: Dry skin [1, 7]: 0 n (%) | TRAE: Dysgeusia [1, 7]: 1 (1) n (%) | TRAE: Fatigue [1, 7]: 1 (1) n (%) | TRAE: Hyperphosphatemia [1, 7]: 2 (2) n (%) | TRAE: Lacrimation increased [1, 7]: 0 n (%) | TRAE: Nail dystrophy [1, 7]: 3 (3) n (%) | TRAE: Onycholysis [1, 7]: 1 (1) n (%) | TRAE: Palmar-plantar erythrodysaesthesia syndrome [1, 7]: 4 (4) n (%) | TRAE: Paronychia [1, 7]: 3 (3) n (%) | TRAE: Stomatitis [1, 7]: 8 (8) n (%) | TRAE: Vision blurred [1, 7]: 0 n (%) | patients discontinued as the result of TRAEs ([1]; across all dose regimens (22 patients)): 11% | treatment-related deaths ([1]; across all dose regimens, safety population N=207): no treatment-related deaths | patients reporting grade 4 TRAEs ([1]; across all dose regimens, safety population N=207 (n=1)): 0.5% | patients reporting grade 3 TRAEs ([1]; across all dose regimens, safety population N=207 (n=69)): 33% | patients reporting TRAEs ([1]; across all dose regimens, safety population N=207 (n=195)): 94% | patients reporting retinopathy ([1]; across all dose regimens, grade 2 [n=1] and grade 3 [n=1]): 2 patients | patients with reduction in the sum of target lesion diameters ([2]; 8 mg/d continuous erdafitinib (Regimen 3), 44/59 patients): 75% | Complete response [2, 8]: 2 (6) n (%) | Disease control rate, confirmed, n (%) [2, 8]: 24 (73) n (%) | ORR, confirmed, n (%) [2, 8]: 8 (24) n (%) | Partial response [2, 8]: 6 (18) n (%) | Progression-free survival, median, months [2, 8]: 4.0 months | Stable disease [2, 8]: 16 (49) n (%) | Complete response [2, 9]: 2 (3) n (%) | Disease control rate, confirmed, n (%) [2, 9]: 57 (73) n (%) | ORR, confirmed, n (%) [2, 9]: 27 (35) n (%) | Partial response [2, 9]: 25 (32) n (%) | Progression-free survival, median, months [2, 9]: 5.1 months | Stable disease [2, 9]: 30 (39) n (%) | Complete response [2, 10]: 3 (5) n (%) | Disease control rate, confirmed, n (%) [2, 10]: 48 (81) n (%) | ORR, confirmed, n (%) [2, 10]: 25 (42) n (%) | Partial response [2, 10]: 22 (37) n (%) | Progression-free survival, median, months [2, 10]: 5.6 months | Stable disease [2, 10]: 23 (39) n (%) | Median Progression Free Survival ([2]; across all dose regimens): 5.1 months | confirmed Objective Response Rate ([2]; across all dose regimens (n = 170), 95% CI, 28%-43%): 35% | confirmed disease control rate ([2]; among all patients (n = 170)): 76% | response to treatment in relation to number of prior lines of treatment ([2]; chemo-naïve, one prior line, or two or more prior lines of chemotherapy): independent of the number of prior lines treatment | median time to response ([2]; subset of 59 patients on Regimen 3): 1.41 months

From patent US11077106B2, “Cancer treatment” (Janssen Pharmaceutica NV, priority 2017, dated 2021)
